{"source": "PubChem BioAssay AID1919013", "about": "(Molecular Pharmacology Branch, DTP, NCI, 2023);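 also: luminescence taken as a proxy for viable cell amount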;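 as to viability, T/C: percent of DMSO vehicle control where 100% means growth equal to vehicle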", "test_system": "LG0703-F498-PDC complex spheroid growth", "assay": "Anticancer human tumor LG0703-F498-PDC patient-derived lung adenocarcinoma cell line growth inhibition [AhR]", "conditions": "for IC50: curve of first compound; for viability, T/C: stronger effect = lower value", "method_in_brief": "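Agents were dosed in half-log steps down from roughly clinical Cmax, or from 10 microM where Cmax was unknown, alone and with AhR antagonists. Read-out: percent test/control growth of tumor spheroids containing HUVEC and MSC stromal cells.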", "data": [{"smiles": "CC1COCCN1c1cc(-c2ccnn2C)c2ccnc(-c3ccn[nH]3)c2n1", "note": "(stereo not given) + Cc1cncc(-c2nc(NCCc3c[nH]c4ccccc34)c3ncn(C(C)C)c3n2)c1", "values": [{"measurement": "IC50", "setting": "second compound 0.1 µM", "result": 0.621, "unit": "µM"}, {"measurement": "IC50", "setting": "second compound 0.316 µM", "result": 0.279, "unit": "µM"}, {"measurement": "IC50", "setting": "second compound 1 µM", "result": 0.468, "unit": "µM"}, {"measurement": "IC50", "setting": "second compound 3.16 µM", "result": "< 0.00316", "unit": "µM"}, {"measurement": "IC50", "setting": "second compound 10 µM", "result": "< 0.00316", "unit": "µM"}, {"measurement": "viability, T/C", "setting": "second compound 0.1 µM, first compound 0.00316 µM", "result": 104, "unit": "%"}, {"measurement": "viability, T/C", "setting": "second compound 0.1 µM, first compound 0.01 µM", "result": 103, "unit": "%"}, {"measurement": "viability, T/C", "setting": "second compound 0.1 µM, first compound 0.0316 µM", "result": 112, "unit": "%"}, {"measurement": "viability, T/C", "setting": "second compound 0.1 µM, first compound 0.1 µM", "result": 82.3, "unit": "%"}, {"measurement": "viability, T/C", "setting": "second compound 0.1 µM, first compound 0.316 µM", "result": 64.6, "unit": "%"}, {"measurement": "viability, T/C", "setting": "second compound 0.1 µM, first compound 1 µM", "result": 40.8, "unit": "%"}, {"measurement": "viability, T/C", "setting": "second compound 0.316 µM, first compound 0.00316 µM", "result": 111, "unit": "%"}, {"measurement": "viability, T/C", "setting": "second compound 0.316 µM, first compound 0.01 µM", "result": 120, "unit": "%"}, {"measurement": "viability, T/C", "setting": "second compound 0.316 µM, first compound 0.0316 µM", "result": 102, "unit": "%"}, {"measurement": "viability, T/C", "setting": "second compound 0.316 µM, first compound 0.1 µM", "result": 76.4, "unit": "%"}, {"measurement": "viability, T/C", "setting": "second compound 0.316 µM, first compound 0.316 µM", "result": 47.5, "unit": "%"}, {"measurement": "viability, T/C", "setting": "second compound 0.316 µM, first compound 1 µM", "result": 34.3, "unit": "%"}, {"measurement": "viability, T/C", "setting": "second compound 1 µM, first compound 0.00316 µM", "result": 119, "unit": "%"}, {"measurement": "viability, T/C", "setting": "second compound 1 µM, first compound 0.01 µM", "result": 112, "unit": "%"}, {"measurement": "viability, T/C", "setting": "second compound 1 µM, first compound 0.0316 µM", "result": 111, "unit": "%"}, {"measurement": "viability, T/C", "setting": "second compound 1 µM, first compound 0.1 µM", "result": 83.2, "unit": "%"}, {"measurement": "viability, T/C", "setting": "second compound 1 µM, first compound 0.316 µM", "result": 58.9, "unit": "%"}, {"measurement": "viability, T/C", "setting": "second compound 1 µM, first compound 1 µM", "result": 35.5, "unit": "%"}, {"measurement": "viability, T/C", "setting": "second compound 3.16 µM, first compound 0.00316 µM", "result": 38, "unit": "%"}, {"measurement": "viability, T/C", "setting": "second compound 3.16 µM, first compound 0.01 µM", "result": 34.6, "unit": "%"}, {"measurement": "viability, T/C", "setting": "second compound 3.16 µM, first compound 0.0316 µM", "result": 33.2, "unit": "%"}, {"measurement": "viability, T/C", "setting": "second compound 3.16 µM, first compound 0.1 µM", "result": 27.5, "unit": "%"}, {"measurement": "viability, T/C", "setting": "second compound 3.16 µM, first compound 0.316 µM", "result": 18.7, "unit": "%"}, {"measurement": "viability, T/C", "setting": "second compound 3.16 µM, first compound 1 µM", "result": 15.7, "unit": "%"}, {"measurement": "viability, T/C", "setting": "second compound 10 µM, first compound 0.00316 µM", "result": 1.11, "unit": "%"}, {"measurement": "viability, T/C", "setting": "second compound 10 µM, first compound 0.01 µM", "result": 1.21, "unit": "%"}, {"measurement": "viability, T/C", "setting": "second compound 10 µM, first compound 0.0316 µM", "result": 1.42, "unit": "%"}, {"measurement": "viability, T/C", "setting": "second compound 10 µM, first compound 0.1 µM", "result": 1.71, "unit": "%"}, {"measurement": "viability, T/C", "setting": "second compound 10 µM, first compound 0.316 µM", "result": 0.8, "unit": "%"}, {"measurement": "viability, T/C", "setting": "second compound 10 µM, first compound 1 µM", "result": 2.39, "unit": "%"}]}]}
